Source: paper PMC7966987, “Insights into the catalytic properties of the mitochondrial rhomboid protease PARL” (The Journal of Biological Chemistry, 2021)

Tests used:
human PARLΔ77 = experiment: IQ-peptide substrate cleavage kinetics, PARLΔ77 in proteoliposomes; format: biochemical; conditions: for fold change Km/kcat, PARLΔ77/PARLΔ55 / fold change kcat, PARLΔ77/PARLΔ55: PARL in PLs; for turnover / proteolysis with PARLΔ77 compared with PARLΔ55: in PL
Text: To assess the activity of recombinant PARL toward known substrates in a lipid bilayer, full-length and β-truncated PARL were reconstituted in proteoliposomes (PLs) using Escherichia coli lipids that closely resemble the composition of the IMM ([31]). We determined that the EDANS/Dabcyl - FRET tags prevented incorporation of the substrates into PL; however, the substrate could still be cleaved since the active site is proposed to be near the lipid/water interface ([40], [41]) analogous to bacterial rhomboid proteases (Fig. 1). To calculate the specific activity of the protease, we quantified the fraction of PARL in the PLs with an outward facing active site using a membrane […] activity-based TAMRA-labeled fluorophosphonate probe ([42]). […] These values were used to calculate specific activity of the PARL protease. Next, we compared cleavage of three IQ-peptide substrates by reconstituted full-length mature PARLΔ55 and the β-truncated form, PARLΔ77 (Fig. 3, Tables S5 and S6).
(§1) Assays with FRET-PINK1^70–134 were conducted as previously described ([26]). For EDANS/Dabcyl 10-mer IQ peptides (PINK1, PGAM5, Smac/Diablo), lyophilized peptides were initially dissolved in DMSO to obtain a stock solution. The IQ peptide substrates in a concentration range of 0.1–70 μM were incubated with activity assay buffer (50 mM Tris-HCl pH 7.0, 150 mM NaCl, 10% glycerol, 0.1% DDM) in a 384-well black-bottomed plate at 37 °C for 30 min in a multiwell plate reader (SynergyMx, BioTek). For all concentrations of IQ peptide, the DMSO was kept constant at 5%. Following preincubation, PARL was added to a final concentration of 0.8 μM to initiate the cleavage reaction. Fluorescence readings were taken every 3 min over a 3 h time course at ƛex = 336 nm and ƛem = 490 nm. The initial velocity was determined from the fluorescence readings over the time course. For each substrate concentration, a no-enzyme control was subtracted to eliminate background fluorescence changes not related to substrate cleavage. Relative fluorescence units were converted to concentration (μM) by determining the maximum change in fluorescence observed for each substrate concentration when fully digested. GraphPad Prism software was used for Michaelis–Menten analysis of kinetic curves. All kinetic data were obtained using at least three biological replicates (different enzyme preparations) with technical duplicates for each experiment. For kinetic measurements in detergent with all three substrates, the activity assays were repeated at least five times. In addition, after each protease purification, the quality control of purified PARL was controlled by measuring its enzymatic activity. Minimum of three experimental replicates with two technical replicates were used for data analysis.
(§2) E. coli polar lipids (Avanti), 400 μg in chloroform, were dried under nitrogen stream in a glass tube to yield a thin film of lipid. The tube was incubated overnight in a desiccator to completely remove all traces of solvent. In total, 50 μl of water and DDM detergent was added to the lipid film for resuspension at room temperature for 10 min, followed by the addition of purified PARL (400 μg) in 50 mM Tris-HCl, pH 8.0, 150 mM NaCl, 20% glycerol, 0.1% DDM, to yield the final weight ratio of 1 PARL:1 lipid:2 detergent. The detergent was slowly removed by the addition of SM2 Biobeads (Bio-Rad) while stirring on ice for 6 h to allow for the generation of proteoliposomes (PL); the process was controlled by the regimen of Biobead addition. To purify the PL, 50%:20% sucrose density gradient ultracentrifugation was used. A TAMRA probe (ThermoFisher) was used to determine the orientation of reconstituted PARL, which specifically and covalently labels serine residues of an enzymatically active serine protease. In total, 2 μM of TAMRA probe was added to PL samples and incubated for 1 h, allowing the TAMRA probe to label only the outward-facing accessible active sites. […]

PARLΔ77 = molecular target: T1, PARLΔ77 (Homo sapiens, UniProt Q9H300); experiment: IQ-peptide substrate cleavage kinetics, PARLΔ77 in POPE/POPC proteoliposomes lacking CL; format: biochemical; conditions: pH 7.0, 37 °C, mean ± SEM, n=3
T1 construct: GFP-hexahistidine (behind a TEV cleavage site) (C, cleaved yes); made in house; host or cells: Pichia pastoris
T1 sequence (Q9H300 78-379): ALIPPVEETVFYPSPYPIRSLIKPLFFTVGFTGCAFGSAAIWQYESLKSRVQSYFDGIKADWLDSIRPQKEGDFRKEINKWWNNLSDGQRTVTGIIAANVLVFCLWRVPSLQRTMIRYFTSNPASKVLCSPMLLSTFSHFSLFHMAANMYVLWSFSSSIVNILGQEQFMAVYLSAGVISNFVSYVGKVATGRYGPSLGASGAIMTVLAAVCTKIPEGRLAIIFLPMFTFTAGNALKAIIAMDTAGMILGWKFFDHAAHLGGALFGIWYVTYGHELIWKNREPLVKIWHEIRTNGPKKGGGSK
Text: To examine if CL influences PARL activity in a membrane environment, we prepared PL samples containing β-truncated PARL and conducted detailed kinetic analysis with the three IQ-peptide substrates (Fig. 3B). Two independent PL samples were generated: the first consisted only of POPC and POPE, while the second also contained CL. […] When CL was omitted from the PL, we observed two to tenfold slower turnover rates of cleavage for IQ-peptide substrates by β-truncated PARL (Fig. 3B and Table S7).
as §1
as §2, with “sites. The same amount of PL, but with 1% DDM added to dissolve lipid vesicles incubated with 2 μM of TAMRA probe at the same conditions, was used as a benchmark for 100% accessible protein amount. The reaction was quenched with addition of SDS-containing sample buffer and the protein samples were visualized with SDS-PAGE followed by fluorescent gel scanning. The bands were quantified by densitometry analysis.” for “sites.”

| Substance | fold change Km/kcat, PARLΔ77/PARLΔ55 (human PARLΔ77) [fold] | fold change kcat, PARLΔ77/PARLΔ55 (human PARLΔ77) [fold] | Km (PARLΔ77) [µM] | kcat (turnover rate) (PARLΔ77) [h⁻¹] | kcat/KM (catalytic efficiency) (PARLΔ77) [µM⁻¹ h⁻¹] | turnover / proteolysis with PARLΔ77 compared with PARLΔ55 (human PARLΔ77; listed as IQ-Smac/Diablo) | turnover / proteolysis with PARLΔ77 compared with PARLΔ55 (human PARLΔ77; listed as Smac/Diablo) |
| --- | --- | --- | --- | --- | --- | --- | --- |
| (DABCYL)-AVFLAFGLGL-Glu(EDANS) [IQ-PINK1^99–108, internally quenched DABCYL/EDANS peptide substrate based on PINK1 PARL cleavage site] | 5 | 3 | 14 ± 5 | 7 ± 1 | 0.5 ± 0.2 | – | – |
| (DABCYL)-AVFLSAVAVG-Glu(EDANS) [IQ-PGAM5^20–29, internally quenched DABCYL/EDANS peptide substrate based on PGAM5 PARL cleavage site] | 7 | 4 | 8 ± 3 | 9 ± 2 | 1.0 ± 0.3 | – | – |
| (DABCYL)-GVT LCAVPIA-Glu(EDANS) [IQ-Smac/Diablo^51–60, internally quenched DABCYL/EDANS peptide substrate based on Smac/Diablo PARL cleavage site] | 2 | 10 | 3.8 ± 1 | 4.8 ± 0.3 | 1.2 ± 0.3 | increase in proteolysis | significantly enhanced |
